# In patent US6500842B1, “8-hydroxy-7-substituted quinolines as anti-viral agents” (Pharmacia & Upjohn Company, priority 1996, dated 2002):
# Biological target: T1, HCMV polymerase (Human cytomegalovirus, UniProt P08546)
# T1 construct: made in house; host or cells: recombinant baculovirus-infected SF-9 cells
# Assay: HCMV polymerase assay (scintillation proximity assay)
# Format: biochemical
# Details: Table 10; CMV pol Assay; read-out: IC50
# Protocol: The HCMV polymerase assay is performed using a scintillation proximity assay (SPA) as described in several references, such as N. D. Cook, et al., Pharmaceutical Manufacturing International, pages 49-53 (1992); K. Takeuchi, Laboratory Practice, September issue (1992); U.S. Pat. No. 4,568,649 (1986); which are incorporated by reference herein. Reactions are performed in 96-well plates. The assay is conducted in 100 μl volume with 5.4 mM HEPES (pH 7.5), 11.7 mM KCl, 4.5 mM MgCl2, 0.36 mg/ml BSA, and 90 nM ^3H-dTTP. Assays are run with and without CHAPS, (3-[(3-Cholamidopropyl)-dimethylammonio]-1-propane-sulfonate) at a final concentration of 2 mM. HCMV is diluted in enzyme dilution buffer containing 50% glycerol, 250 mM NaCl, 10 mM HEPES (pH 7.5), 100 pg/ml BSA, and 0.01% sodium azide. The HCMV polymerase, which is expressed in recombinant baculovirus-infected SF-9 cells and purified according to literature procedures, is added at 10% (or 10 μl) of the final reaction volume, i.e., 100 μl. Compounds are diluted in 50% DMSO and 10 μl are added to each well. Control wells contain an equivalent concentration of DMSO. Unless noted otherwise, reactions are initiated via the addition of 6 nM biotinylated poly(dA)-oligo(dT) template/primer to reaction mixtures containing the enzyme, substrate, and compounds of interest. Plates are incubated in a 25° C. of 37° C. H2O bath and terminated via the addition of 40 μl/reaction of 0.5 M EDTA (pH 8) per well. Reactions are terminated within the time-frame during which substrate incorporation is linear and varied depending upon the enzyme and conditions used, i.e., 30 min. for HCMV polymerase. Ten μl of streptavidin-SPA beads (20 mg/ml in PBS/10% glycerol) are added following termination of the reaction. Plates are incubated 10 min. at 37° C., then equilibrated to room temperature, and counted on a Packard Topcount. Linear regressions are performed and IC50's are calculated using computer software. Results of the testing of compounds of the present invention in this assay are shown in Tables 1, 2, 5, 9, 10, 11, 13 (except for the last compound which was tested under modified conditions) and 14 below.
# T1 sequence (P08546 whole entry): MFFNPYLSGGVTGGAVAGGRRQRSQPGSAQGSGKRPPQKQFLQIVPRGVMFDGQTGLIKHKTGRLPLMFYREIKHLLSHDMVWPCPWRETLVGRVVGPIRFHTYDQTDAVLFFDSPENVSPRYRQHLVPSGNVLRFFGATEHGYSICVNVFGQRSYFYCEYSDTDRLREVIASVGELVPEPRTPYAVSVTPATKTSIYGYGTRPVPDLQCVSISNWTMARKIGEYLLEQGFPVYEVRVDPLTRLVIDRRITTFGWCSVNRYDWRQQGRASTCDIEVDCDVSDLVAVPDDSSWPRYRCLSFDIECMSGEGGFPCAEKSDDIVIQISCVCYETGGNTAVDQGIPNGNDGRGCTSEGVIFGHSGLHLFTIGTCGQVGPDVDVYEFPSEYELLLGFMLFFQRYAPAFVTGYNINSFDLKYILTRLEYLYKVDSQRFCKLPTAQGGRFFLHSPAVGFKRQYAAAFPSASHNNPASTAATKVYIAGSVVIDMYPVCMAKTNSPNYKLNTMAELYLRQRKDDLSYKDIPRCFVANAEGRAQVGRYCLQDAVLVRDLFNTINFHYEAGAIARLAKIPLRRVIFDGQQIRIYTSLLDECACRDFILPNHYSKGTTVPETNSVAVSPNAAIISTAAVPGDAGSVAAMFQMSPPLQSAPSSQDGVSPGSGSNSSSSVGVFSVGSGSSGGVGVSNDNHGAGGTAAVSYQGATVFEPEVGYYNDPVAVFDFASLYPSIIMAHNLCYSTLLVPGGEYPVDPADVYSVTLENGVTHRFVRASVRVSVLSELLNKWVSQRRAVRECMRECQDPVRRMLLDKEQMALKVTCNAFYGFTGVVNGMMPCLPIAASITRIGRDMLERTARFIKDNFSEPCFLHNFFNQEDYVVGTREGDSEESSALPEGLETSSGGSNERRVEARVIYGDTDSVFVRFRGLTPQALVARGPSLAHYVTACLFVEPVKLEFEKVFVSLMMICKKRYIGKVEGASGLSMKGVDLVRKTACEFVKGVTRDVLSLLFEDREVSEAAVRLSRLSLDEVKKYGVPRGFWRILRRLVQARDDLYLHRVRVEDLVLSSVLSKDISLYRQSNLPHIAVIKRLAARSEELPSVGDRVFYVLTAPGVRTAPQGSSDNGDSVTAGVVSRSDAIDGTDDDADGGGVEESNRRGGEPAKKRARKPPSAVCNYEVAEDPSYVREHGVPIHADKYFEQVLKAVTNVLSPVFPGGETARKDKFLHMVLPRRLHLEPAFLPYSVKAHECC
row,Compound,IC50 [µM]
1,O=C(Nc1cccc(Cl)c1)c1ccc2cccnc2c1O,1.7
2,O=C(Nc1cccc(F)c1)c1ccc2cccnc2c1O,16.9
3,O=C(Nc1ccc(F)c(F)c1)c1ccc2cccnc2c1O,82.9
4,O=C(Nc1cc(F)cc(F)c1)c1ccc2cccnc2c1O,26.3
5,O=C(Nc1ccc([N+](=O)[O-])cc1)c1ccc2cccnc2c1O,48.4
6,O=C(Nc1ccc2ccccc2c1)c1ccc2cccnc2c1O,15.5
7,O=C(Nc1ccc(S(=O)(=O)Nc2ccc3cn[nH]c3c2)cc1)c1ccc2cccnc2c1O,2.4
8,O=C(Nc1cccc(Br)c1)c1ccc2cccnc2c1O,9.2
9,O=C(Nc1ccc(Cl)c(Cl)c1)c1ccc2cccnc2c1O,32.7
10,O=C(Nc1cccc(OCc2ccccc2)c1)c1ccc2cccnc2c1O,2.9
11,O=C(Nc1ccc(Oc2ccccc2)cc1)c1ccc2cccnc2c1O,6.9
12,O=C(Nc1cc(Cl)c(O)c(Cl)c1)c1ccc2cccnc2c1O,30.5
13,O=C(Nc1ccc(Sc2ccc([N+](=O)[O-])cc2)cc1)c1ccc2cccnc2c1O,> 100
14,O=C(Nc1ccc(OCc2ccccc2)cc1)c1ccc2cccnc2c1O,4.1
15,O=C(Nc1ccc(Oc2ccc([N+](=O)[O-])cc2)cc1)c1ccc2cccnc2c1O,3.9
16,O=C(Nc1cccc2ccccc12)c1ccc2cccnc2c1O,4.9
17,O=C(Nc1ccccc1-n1cccc1)c1ccc2cccnc2c1O,27.9
18,O=C(Nc1ccc2[nH]ccc2c1)c1ccc2cccnc2c1O,13.6
19,O=C(Nc1cccc2cccnc12)c1ccc2cccnc2c1O,10.3
20,O=C(Nc1cc([N+](=O)[O-])cc([N+](=O)[O-])c1)c1ccc2cccnc2c1O,7.1
21,N#Cc1ccccc1NC(=O)c1ccc2cccnc2c1O,> 50
22,O=C(Nc1ccc2cccc(O)c2n1)c1ccc2cccnc2c1O,14.5

# More lines, now with the values ahead:
row,IC50 [µM],Compound
1,30.1,COc1ccc(NC(=O)c2ccc3cccnc3c2O)cc1
2,5.9,O=C(Nc1cccc(I)c1)c1ccc2cccnc2c1O
3,25.5,CSc1cccc(NC(=O)c2ccc3cccnc3c2O)c1
4,19.2,Cc1cc(C)cc(NC(=O)c2ccc3cccnc3c2O)c1
5,29.7,O=C(Nc1ccc(Br)cc1)c1ccc2cccnc2c1O
6,22.4,COc1ccc(NC(=O)c2ccc3cccnc3c2O)c([N+](=O)[O-])c1

# Same assay, conditions: Table 11; read-out: CMV pol Assay IC50
row,Compound,IC50 [µM]
1,O=C(Nc1nnc(NCCc2ccccc2)s1)c1ccc2cccnc2c1O,2.4
2,N#CC(Nc1nnc(NC(=O)c2ccc3cccnc3c2O)s1)c1ccc2c(c1)OCO2 (stereo not shown),3.1
3,COC(=O)[C@H](Cc1ccccc1)Nc1nnc(NC(=O)c2ccc3cccnc3c2O)s1,15.4
4,COC(=O)[C@@H](Cc1ccccc1)Nc1nnc(NC(=O)c2ccc3cccnc3c2O)s1,9.4
5,O=C(Nc1nnc(NCc2ccc3c(c2)OCO3)s1)c1ccc2cccnc2c1O,7.1
6,O=C(Nc1nnc(NC(C(=O)O)c2ccc3c(c2)OCO3)s1)c1ccc2cccnc2c1O (stereo not shown),22.6
7,O=C(Nc1nnc(NC(C(=O)O)c2cccc3c2OCO3)s1)c1ccc2cccnc2c1O (stereo not shown),18.9
8,O=C(Nc1nnc(N[C@@H](Cc2c[nH]c3ccccc23)C(=O)O)s1)c1ccc2cccnc2c1O,8.5

# The next lines start with the values.
row,IC50 [µM],Compound
1,2.5,CCCCNc1nnc(NC(=O)c2ccc3cccnc3c2O)s1
2,14.3,CC(C)(C)OC(=O)NCCNc1nnc(NC(=O)c2ccc3cccnc3c2O)s1
3,4.3,CC(C)(C)OC(=O)C(Nc1nnc(NC(=O)c2ccc3cccnc3c2O)s1)c1ccc2c(c1)OCO2 (stereo not shown)
4,4.7,CC(C)(C)OC(=O)C(Nc1nnc(NC(=O)c2ccc3cccnc3c2O)s1)c1cccc2c1OCO2 (stereo not shown)
5,< 3.1,CC(C)(C)OC(=O)[C@H](Cc1ccc(O)cc1)Nc1nnc(NC(=O)c2ccc3cccnc3c2O)s1
6,< 3.1,CC(C)(C)OC(=O)[C@H](CCCCNC(=O)OCc1ccccc1)Nc1nnc(NC(=O)c2ccc3cccnc3c2O)s1
7,11.4,CC(C)C[C@H](Nc1nnc(NC(=O)c2ccc3cccnc3c2O)s1)C(=O)OC(C)(C)C
8,13.9,CC(C)(C)OC(=O)[C@@H]1CCCN1c1nnc(NC(=O)c2ccc3cccnc3c2O)s1
9,26.6,CSCC[C@H](Nc1nnc(NC(=O)c2ccc3cccnc3c2O)s1)C(=O)OC(C)(C)C
10,< 3.1,CC(C)(C)OC(=O)[C@H](Cc1c[nH]c2ccccc12)Nc1nnc(NC(=O)c2ccc3cccnc3c2O)s1
11,4.5,CC(C)(C)OC(=O)[C@H](Cc1ccc(OC(C)(C)C)cc1)Nc1nnc(NC(=O)c2ccc3cccnc3c2O)s1
12,24.2,CC(C)(C)OC(=O)C[C@H](Nc1nnc(NC(=O)c2ccc3cccnc3c2O)s1)C(=O)OC(C)(C)C

# Same assay, conditions: Table 13; 100 μM
row,inhibition at 100 µM [%],Compound
1,35,Cc1cc(C(F)(F)F)nc2c(O)c(C(=O)NCc3ccc(Cl)cc3)ccc12

# Same assay, conditions: Table 13; read-out: IC50
row,IC50 [µM],Compound
1,7.6,Cc1ccc2ccc(C(=O)Nc3ccc(Cl)cc3)c(O)c2n1
2,2.6,O=C(NCc1ccc(Cl)cc1)c1cc([N+](=O)[O-])c2cccnc2c1O
3,5.2,O=C(NC1=NC(=O)C(c2cccc([N+](=O)[O-])c2)S1)c1ccc2cccnc2c1O (stereo not shown)
4,1.7,O=C(NC1=NC(=O)C(Cc2ccc(Cl)cc2)S1)c1ccc2cccnc2c1O (stereo not shown)
5,41.6,O=C(NCCSc1ccccc1)c1ccc2ccc(C(F)(F)F)nc2c1O
6,102,Cc1cc(O)c2ccc(C(=O)NCc3ccc(Cl)cc3)c(O)c2n1

# Same assay, conditions: Table 14; 25 uM
row,Compound,inhibition at 25 µM [%]
1,O=C(NCCc1ccccc1F)c1ccc2cccnc2c1O,39
2,O=C(NCCc1ccc(F)cc1)c1ccc2cccnc2c1O,42

# Continued, values first:
row,inhibition at 25 µM [%],Compound
1,21,O=C(N[C@H]1CC[C@H](O)CC1)c1ccc2cccnc2c1O
2,93,O=C(N[C@H](CO)Cc1ccccc1)c1ccc2cccnc2c1O
3,39,O=C(NC(CO)c1ccccc1)c1ccc2cccnc2c1O (stereo not shown)

# Same assay, conditions: Table 14; read-out: IC50
row,Compound,IC50 [µM]
1,O=C(c1ccc2cccnc2c1O)N1CCN(c2ccc(Cl)c(Cl)c2)CC1,14
2,O=C(NCc1ccc2c(c1)OCO2)c1ccc2cccnc2c1O,26
3,O=C(NCCNc1ccc([N+](=O)[O-])cn1)c1ccc2cccnc2c1O,42
4,O=C(NCCc1ccccc1Cl)c1ccc2cccnc2c1O,26
5,O=C(NCc1ccc(F)c(F)c1)c1ccc2cccnc2c1O,42
6,O=C(NCc1c(F)cccc1Cl)c1ccc2cccnc2c1O,30
7,O=C(NCc1ccc(F)cc1Cl)c1ccc2cccnc2c1O,28
8,O=C(NCc1cc(Cl)cc(Cl)c1)c1ccc2cccnc2c1O,27
9,O=C(N[C@H]1CC[C@H](OC(=O)c2ccc3cccnc3c2O)CC1)c1ccc2cccnc2c1O,4

# More lines, now with the values ahead:
row,IC50 [µM],Compound
1,27,CCCCCCNC(=O)c1ccc2cccnc2c1O
2,29,O=C(NCCOc1ccccc1)c1ccc2cccnc2c1O
3,41,C[C@H](NC(=O)c1ccc2cccnc2c1O)[C@H](O)c1ccccc1
4,41,CCOC(=O)C(Cc1ccccc1)NC(=O)c1ccc2cccnc2c1O (stereo not shown)
5,54,N#CC(NC(=O)c1ccc2cccnc2c1O)c1ccccc1 (stereo not shown)
6,51,CC(C)C[C@H](NC(=O)c1ccc2cccnc2c1O)C(=O)OC(C)(C)C
7,14,O=C(NC(CO)C(O)c1ccccc1)c1ccc2cccnc2c1O (stereo not shown)
8,26,CC[C@H](C)C(CO)NC(=O)c1ccc2cccnc2c1O (stereo partly shown)
9,34,O=C(NCc1cccs1)c1ccc2cccnc2c1O
10,19,O=C(N[C@@H](CO)c1ccccc1)c1ccc2cccnc2c1O
